# Test: Upregulation of BMP-2 expression in mouse MC3T3-E1 cells at 4 uM after 24 hrs by luciferase reporter gene assay relative to control
# Type: functional, cell-based
row,Compound,Activity
1,CCOC(=O)c1ccc2cc(C(=O)/C=C/c3ccc(OC)c(OC)c3OC)sc2c1,-13%
2,COc1ccc2oc(C(O)C[S+](C)[O-])cc2c1 (configuration not stated),16.9%
3,CCOC(=O)c1cc2c(OC)cccc2o1,60%
4,C[S+]([O-])CC(O)c1cc2ccccc2s1 (configuration not stated),-3.6%
5,COC(=O)c1ccc2cc(C(C)O)sc2c1 (configuration not stated),81.4%
6,CCOC(=O)c1ccc2cc(C(=O)/C=C/c3ccc(OC)cc3)sc2c1,12.2%
7,CCOC(=O)c1cc2cc(OC)ccc2o1,64.1%
8,CCN(CC)c1ccc2cc(C(=O)C[S+](C)[O-])oc2c1 (configuration not stated),10%
9,CCOC(=O)c1ccc2cc(C(=O)/C=C/c3ccccc3Cl)sc2c1,39.1%
10,CCOC(=O)c1ccc2cc(C(=O)/C=C/c3ccc(OC)c(OC)c3)sc2c1,0.7%
11,COc1ccc2oc(C(=O)CS(C)(=O)=O)cc2c1,12.9%
12,COc1ccc2oc(C(=O)C[S+](C)[O-])cc2c1 (configuration not stated),2.1%
13,COC(=O)c1ccc2sc(C(C)O)cc2c1 (configuration not stated),56.9%
14,COc1cccc2oc(C(=O)C[S+](C)[O-])cc12 (configuration not stated),19.6%
15,C[S+]([O-])CC(O)c1cc2cc3c(cc2s1)OCO3 (configuration not stated),-9.3%
16,COc1ccc2cc(C(=O)C[S+](C)[O-])oc2c1 (configuration not stated),7.7%
17,CCOC(=O)c1cc2ccc(N(CC)CC)cc2o1,44.6%
